Test results from patent US12648565B2, “Post-emergence herbicide” (Belvedere Foliar LLC, priority 2017, dated 2026).

How the values were obtained:
[1] = tested on: Pasture Blend 1, Pasture blend 2, Cineraria meritima (Dusty miller) (plants 21, 22, 10); test: Trial 14: greenhouse foliar spray trial, visual toxicity scoring; assay type: in vivo, pasture seed blend
Excerpt: (§1) The majority of greenhouse trials conducted to date have been of one basic design: • 1. Samples of different species of flowering plant and grass are exposed to different formulations of the herbicide in accordance with some embodiments, prepared in a range of concentrations, in combination with potentially suitable adjuvants, and applied as an aquatic spray. Experimental plants are purchased either from a local nursery, grown from ornamental and weed seed packs, or grown from seeds of a custom blend prepared specifically for this project and listed in Table 4B. The experimental variable in a typical test is the molar mass concentration of the nutrient salt being examined. Other factors including pH, nitrogen source, and the amount and composition of surfactant or penetrant are constants within a trial except when one of these factors is itself the variable of interest in the experiment. Experiments are controlled unless irrelevant for a particular test. • 2. Standard techniques to reduce experimental error are employed including use of controls; standard spray application pressures; standardized growing conditions, growing medium, containers, and source irrigation water; and preparation and shipping of samples for laboratory analysis according to required standard laboratory protocols. • 3. Plants are sprayed with the experimental formulation, always in late afternoon (greenhouse tests), or in early morning (field tests), are observed over as many as several weeks, and their visible state of decline scored by the same examiner on a 9 points system relying on visual effects of toxicity. (Table 5.)
(§2) Scores of half-value are also used: 0, 0.5, 1.0, 1.5, 2.0, 2.5, etc. • 4. The estimated successful herbicidal effectiveness of a formulation was determined from a combination of averaged and cumulative scores of 4.0 to 5.0 observed approximately 14 days or longer after application: “All leaves and flowers if present desiccated, browned, wilted, and stems or blades lodged; no green tissue visible; no regrowth from roots visible.”
In Trial 14, the herbicides comprised K-acetate; molarity 2.0, 1.5, 1.0; pH approx. 5.3 by glacial acetic acid, and a proprietary adjuvant mix. Ref. Lab-1, p. 113. Test plants (ref. Tables 4A and 4B): P1, P2, P10.

[2] = tested on: Pasture Blend 2, Allium ampeloprasum (Leek), Brassica oleracea (Kale), Lantana camara, Pisum sativum var. saccharatum (Snow pea) (P2, 1, 5, 16, 23); test: Trial 31A: greenhouse foliar spray trial, adjuvant mix A, visual toxicity scoring; assay type: in vivo; details: 1.0M; by Day 20
Excerpt: (§3) The plants were numbered 22, 1, 5, 16, and 23, corresponding to Pasture blend 2, Brassica oleracea (var. Kale “Dinosaur”), Lantana camara (White Lantana), and Pisum sativum var. saccharatum (Snow pea) (Refer to Tables 4A and 4B for plant species identification). The only difference between Trials 31A and 31B was the composition of the proprietary adjuvant mix employed for each trial. The adjuvants for the “A” series were urea and […] silicone surfactant (Loveland Products). The adjuvants for the “B” series were urea and LI700 penetrant (Loveland Products). Solutions 1 A & B (S-1A, S-1B) correspond to a 2.0 molar solution of potassium acetate, pH 5.01 achieved with citric acid. S-2 is a similar solution of 1.5 molarity, pH 5.00. S-3 is a similar solution of 1.0 molarity, pH 4.97. (Refer to Tables 6A and 6B for trial solutions, details and results).
(§4) The majority of greenhouse trials conducted to date have been of one basic design: • 1. […] Plants are sprayed with the experimental formulation, always in late afternoon (greenhouse tests), or in early morning (field tests), are observed over as many as several weeks, and their visible state of decline scored by the same examiner on a 9 points system relying on visual effects of toxicity. […]

[3] = tested on: Pasture Blend 2, Allium ampeloprasum (Leek), Brassica oleracea (Kale), Lantana camara, Pisum sativum var. saccharatum (Snow pea) (P2, 1, 5, 16, 23); test: Trial 31B: greenhouse foliar spray trial, adjuvant mix B, visual toxicity scoring; assay type: in vivo; details: 2.0 M; day 4
Excerpt: as §3, §4

[4] = tested on: Pasture Blend 2, Gazania rigens, Fragaria x ananassa (Strawberry), Nemophila menziesii discoidalis (plants 22, 15, 13, 19); test: Trial 22: greenhouse foliar spray trial, visual toxicity scoring; assay type: in vivo
Excerpt: as §1, §2
In Trial 22, the herbicides comprised K-acetate; molarity range 1.0-2.0; pH approx. 5.0 with succinic acid; proprietary adjuvant mix.

[5] = tested on: all weeds: Common purslane, Barnyard grass, Feather fingergrass; details: Day 4
Excerpt: as §1, with “Standard techniques to reduce experimental error are employed including use of controls; standard spray application pressures; standardized growing conditions, growing medium, containers, and source irrigation water; and preparation and shipping of samples for laboratory analysis according to required standard laboratory protocols. • 3.” left out, “(Table 5.)” left out

[6] = tested on: Pasture Blend 2, Gazania rigens, Fragraria x ananassa (Strawberry), Nemophila menziesii discoidalis (plants 22, 15, 13, 19); test: Trial 25: greenhouse foliar spray trial at four acidities, visual toxicity scoring; assay type: in vivo; details: molarity 1.5, test conclusion on Day 5
Excerpt: as §1, with “Standard techniques to reduce experimental error are employed including use of controls; standard spray application pressures; standardized growing conditions, growing medium, containers, and source irrigation water; and preparation and shipping of samples for laboratory analysis according to required standard laboratory protocols. • 3.” left out, “(Table 5.)” left out

mature field weeds = test: Trial 50: field test, visual toxicity scoring; assay type: in vivo
Excerpt: as §1, §2
In Trial 50, the herbicides comprised K-acetate; molarity range from 1.5, 2.0 and 2.5; pH 5.0 with citric acid; proprietary adjuvant mix. Ref. Lab-2, p. […] Test plants were mature field weeds.
S-1 corresponds to the highest concentration of active nutrient tested, S-3 corresponds to the lowest concentration of nutrient tested, and S-2 represent an intermediate level. The data are graphically presented below in FIG. 11.

[7] = tested on: Viola x wittockiana (Viola), Antirrhinum majus (Snapdragon), Cineraria meritima (Dusty miller), Cymbalaria aequitriloba (Cymbalaria); test: Trial 56: greenhouse foliar spray trial, visual toxicity scoring; assay type: in vivo; details: for phytotoxic control (in words): 1.5 molarity
Excerpt: as §1, §2

[8] = tested on: Brassica oleracea (Kale), Dichondra repens, Fragaria x ananassa (Strawberry), Pasture Blend 2, Rosemarina officinalis (Rosemary) (5, 11b, 13, 22, 23b); test: Trial 47: greenhouse foliar spray trial, visual toxicity scoring; assay type: in vivo
Excerpt: as §1, §2
In Trial 47, the herbicides comprised K-acetate; molarity range from 1.0-2.5; pH 5.03-5.05 with glacial acetic acid; proprietary adjuvant mix. Ref. Lab-2, p. 42. Test plants (ref Tables 4A and 4B):5, 11b, 13, 22, 23b
S-1 corresponds to the highest concentration of active nutrient tested, S-4 corresponds to the lowest concentration of nutrient tested, and […] represent intermediate levels. The data are graphically presented below in FIG. 8.

CC(=O)[O-].[K+] [K-acetate, Potassium acetate]
average toxicity score ([1]; 1.0M, Day 7 (so in the source)): 4.3
average toxicity score ([1]; 1.0M, Day 11): 4.0
average toxicity score ([1]; 2.0M, Day 1): 4.0
average toxicity score ([1]; 2.0M, Day 11): 4.7
average toxicity score ([1]; […], Day 1): 4
average toxicity score ([1]; […], Day 11): 4.8
average toxicity score [2]: 4.4
toxicity level (in words) [3]: severe-to-fatal
phytotoxic results (in words) ([4]; 1.0M, Days 3-7): strong phytotoxic results
average toxicity score ([4]; 2.0M, Day 5): 4.3
average toxicity score ([4]; 2.0M, Day 7): 4.4
average toxicity score ([4]; […], Day 5): 4.1
average toxicity score ([4]; […], Day 7): 4.1
phytotoxic control (in words) [5]: strong to excellent phytotoxic control
phytotoxic effect (in words) ([6]; pH 4.3): severe-to-fatal
phytotoxic effect (in words) ([6]; pH 5.0): severe-to-fatal
average toxicity score (mature field weeds; 2.0M, Day 3): 3.6
average toxicity score (mature field weeds; 2.0M, Day 10): 3.6
average toxicity score (mature field weeds; 2.5M, Day 3): 2.8
average toxicity score (mature field weeds; 2.5M, Day 10): 2.8
phytotoxicity (in words) (mature field weeds; 2.5 molarity): less phytotoxicity than lower molarities
appearance of treated plants ([7]; 1.5 molar, last observed on Day 16): appeared dead with no regrowth
phytotoxic control (in words) ([7]; Day 3): strong phytotoxic control
phytotoxic control (in words) ([7]; Day 4 through Day 15): excellent phytotoxic control
average toxicity score ([8]; 1.0M, second value listed (days not given)): 4.4
average toxicity score ([8]; 1.0M, third value listed (days not given)): 4.8
average toxicity score ([8]; 2.5M, Day 5): 4.5
average toxicity score ([8]; 2.5M, Day 9): 4.8
average toxicity score ([8]; 2.5M, Day 14): 4.9
average toxicity score ([8]; […] (so in the source), Day 5): 4.0
average toxicity score ([8]; […] (so in the source), Day 9): 4.8
average toxicity score ([8]; […] (so in the source), Day 14): 5.0
